Measured values: patent EP0236913A2, “Aryl-azolylmethyl-benzocyclo-alkene derivatives, process for their preparation and their use” (HOECHST AKTIENGESELLSCHAFT, priority 1986, dated 1987)
≈ marks a conversion by molar mass, not a printed value.

Assays:
[1] = tested on: Weizenmehltau (Erysiphe graminis); assay: wheat powdery mildew, curative spray test on wheat plants (Versuch I); type: in vivo; conditions: untreated infected control = 100 %
Protocol: Weizenpflanzen werden im 3-Blattstadium mit Konidien des Weizenmehltaus (Erysiphe graminis) stark inokuliert und in einem Gewächshaus bei 20°C und einer relativen Luftfeuchte von 90 - 95% aufgestellt. 3 Tage nach Inokulation werden die Pflanzen mit den in Tabelle 6 aufgeführten Verbindungen in den angegebenen Wirkstoffkonzentrationen gleichmäßig benetzt. Nach einer Inkubationszeit von 10 Tagen werden die Pflanzen auf den Befall mit Weizenmehltau untersucht. Der Befallsgrad wird ausgedrückt in % befallener Blattfläche, bezogen auf unbehandelte, infizierte Kontrollpflanzen (= 100% Befall). Das Ergebnis ist in der Tabelle 6 zusammengefaßt.

[2] = tested on: Candida albicans (200/175); assay: in vitro antimycotic serial dilution test (microtitration technique); type: cell-based; conditions: read-out: Minimale Hemmkonzentration
[3] = tested on: Trichophyton mentagrophytes; assay: local in vivo efficacy in experimentally infected guinea pigs, dermal treatment; parameters: species or system Meerschweinchen (Stamm Pirbright white); conditions: Dermal 5 x 0.1 %; for Mykosen (Durchmesser in mm) Präparat + Vehikel x2: from day 3 after infection, mean, n = 6 measurements; for Mykosen Differenz (%): difference relative to Clotrimazol = 100; for Mykosen (Durchmesser in mm) Differenz x1 - x2: vehicle control side minus treated side
From the text: Als Beispiel für die hohe lokale in vivo Wirksamkeit der erfindungsgemäßen Verbindungen werden Behandlungsergebnisse an experimentell mit Trichophyton mentagrophytes infizierten Labortieren angeführt.
Zur Feststellung der lokalen Wirksamkeit wurden jeweils zwei 450-500 g schwere Meerschweinchen (Stamm Pirbright white) mit 1,5 x 10^4 Konidien/Tier in die Epidermis, verteilt auf 6 Infektionspunkte, infiziert.
Die Behandlung der Tiere erfolgte dermal ab dem 3. Tag nach der Infektion an 5 aufeinanderfolgenden Tagen durch Aufbringen einer 0,1 %igen Präparatlösung auf 3 Infektionsstellen einer Rückenseite. Die andere Rückenseite wurde mit Vehikel ohne Präparat auf gleiche Weise behandelt.
Neben den mit den erfindungsgemäßen Substanzen behandelten Tieren wurden zwei Tiere mit der Referenzsubstanz Clotrimazol behandelt, zwei Tiere blieben nach der Infektion unbehandelt.

[4] = tested on: Microsporum canis (150/120); assay: in vitro antimycotic serial dilution test (microtitration technique); type: cell-based; conditions: read-out: Minimale Hemmkonzentration
From the text: (§1) Die in vitro-Prüfungen auf antimykotische Wirkung wurden im Reihenverdünnungstest an Hauptpilzen (Trichophyton mentagrophytes, Trichophyton rubrum, Microsporum canis), Hefepilzen (Candida Albicans) und Schimmelpilzen (Aspergillus niger) durchgeführt (Material und Methodik: Mikrotitrationstechnik veröffentlicht in Mykosen 27,14 (1984). Wie aus Tabelle 4 ersichtlich, zeigen bei diesen in vitro-Prüfungen die erfindungsgemäßen Verbindungen gute antimykotische Eigenschaften,die denjenigen der Referenzsubstand Clotrimazol überlegen sind.

[5] = tested on: Trichophyton mentagrophytes (100/25); assay: as above; type: cell-based; conditions: read-out: Minimale Hemmkonzentration
From the text: as §1

[6] = tested on: Trichophyton rubrum (101/58); assay: as above; type: cell-based; conditions: read-out: Minimale Hemmkonzentration
From the text: as §1

[7] = tested on: Aspergillus niger (500/284); assay: as above; type: cell-based; conditions: read-out: Minimale Hemmkonzentration
From the text: as §1

[8] = tested on: Pentetrazol-induzierte Krämpfe; assay: antagonism of pentetrazol-induced convulsions (PTZ); type: in vivo, Maus; conditions: mouse; pentetrazol 125 mg/kg s.c. 1 h after oral test substance; tonic extensor convulsions; read-out: ED50 (mg/kg p.o.) Ptz
Protocol: Antagonismus gegen Pentetrazol-induzierte Krämpfe (Maus) (PTZ)
(§2) Methode: • Gruppen von 10 männlichen Mäusen (Stamm: NMRI, SPF-71, KF) im Gewicht von 18-22 g werden in diesem Versuch verwendet. Die zu prüfenden Substanzen werden in einer 1 %igen Aufschwemmung von Tylose (Methyl-hydroxy-ethyl-cellulose) in Wasser suspendiert und per Schlundsonde in einem Volumen von 10 ml/kg Körpergewicht oral verabreicht. Die Kontrollgruppe erhält ein entsprechendes Volumen Tylosesuspension ohne Prüfsubstanz.
Pentetrazol (Cardiazol (R)) wird in wäßriger Lösung in einer Dosis von 125 mg/kg Körpergewicht 1 Stunde nach Verabreichung der Prüfsubstanzen subcutan injiziert. Diese Dosis erzeugt bei 90-100 % der Kontrolltiere innerhalb der Beobachtungszeit von 60 Minuten nach der Injektion tonische Extensorkrämpfe der hinteren Extremitäten. Als Schutzwirkung der Prüfsubstanz wird gewertet, wenn die Anzahl der krampfenden Tiere gegenüber der Kontrollgruppe vermindert ist.
Bei vorhandener Schutzwirkung der Prüfsubstanz wird eine mittlere effektive Dosis (ED-50) grafisch (Litchfield and Wilcoxon) oder rechnerisch(Probitanalyse) ermittelt.
Literatur: E.A. SWINYARD, J.Pharmacol.Exp. Ther. 106, (1952), 319-330

[9] = tested on: Elektroschock-induzierte Krämpfe; assay: antagonism of electroshock-induced convulsions (ECS); type: in vivo, Maus; conditions: mouse; corneal electroshock 1 h after oral test substance; tonic extensor convulsions; read-out: ED50 (mg/kg p.o.) ECS
Protocol: Antagonismus gegen Elektroschock-induzierte Krämpfe (Maus) (ECS)
as §2, with “Gruppen von 6 männlichen Mäusen” for “Gruppen von 10 männlichen Mäusen”
Eine Stunde nach Prüfsubstanzgabe wird den.Tieren über Cornea-Elektroden ein Elektroschock verabreicht (Stromstärke 12-22 mA, Dauer 0.2 sec. 50 Hz), nachdem vorher an einer zweiten Kontrollgruppe die Stromstärke ermittelt worden war, die bei 100 % der Tiere einen tonischen Extensorkrampf der hinteren Extremitäten hervorruft.
Die Anzahl der durch die Prüfsubstanz vor einem Extensorkrampf geschützten Tiere dient als Maß der antikonvulsiven Wirkung in diesem Test.
Bei vorhandener Schutzwirkung der Prüfsubstanz wird eine mittlere effektive Dosis (ED-50) grafisch (Litchfield and Wilcoxon) oder rechnerisch (Probitanalyse) ermittelt.
Literatur: E.A. SWINYARD, In: Experimental Models of Epilepsy, Raven Press, New York, 1972, p. 433-458.

[10] = acute oral toxicity (LD-50); conditions: in vivo, per os
[11] = tested on: Pseudo-cercosporella herpotrichoides; assay: agar plate test with Pseudocercosporella cultures (Versuch V); type: cell-based; conditions: 144 h, 6 days after inoculation, read-out: Wirkungsgrad gegenüber Pseudo-cercosporella herpotrichoides in %; for inhibition of growth at 125 µg/mL: 125 ppm Wirkstoff in Biomalzagar; for inhibition of growth at 250 µg/mL: 250 ppm Wirkstoff in Biomalzagar; for inhibition of growth at 500 µg/mL: 500 ppm Wirkstoff in Biomalzagar
Protocol: Biomalzagar wurde mit den beanspruchten Verbindungen in den in Tabelle 10 angegebenen Konzentrationen versetzt. Nach dem Erstarren des Agars erfolgte die Beimpfung mit Pseudocercosporella-Kulturen. Jeweils 20 µl einer Sporensuspension wurden auf das Zentrum der Agarplatte aufgebracht. Die Versuche wurden 6 Tage nach Beimpfung ausgewertet. Der Wirkungsgrad der Wirkstoffe wird ausgedrückt in % im Vergleich zur Kontrolle (Agarmedium ohne Wirkstoff).

[12] = 60 mg Wirkstoff/Liter Spritzbrühe
[13] = 125 mg Wirkstoff/Liter Spritzbrühe
[14] = 250 mg Wirkstoff/Liter Spritzbrühe
[15] = 500 mg Wirkstoff/Liter Spritzbrühe

MIC [2] [mg/L]	MIC [4] [mg/L]	MIC [5] [mg/L]	MIC [6] [mg/L]	MIC [7] [mg/L]	Compound	mit Weizenmehltau befallene Blattfläche in % [1, 12]	mit Weizenmehltau befallene Blattfläche in % [1, 13]	mit Weizenmehltau befallene Blattfläche in % [1, 14] [%]	mit Weizenmehltau befallene Blattfläche in % [1, 15] [%]	Mykosen (Durchmesser in mm) Präparat + Vehikel x2 [3] [mm]	Mykosen Differenz (%) [3]	Mykosen (Durchmesser in mm) Differenz x1 - x2 [3] [mm]	ED50 [8] [mg/kg]	ED50 [9] [mg/kg]	LD50 [10] [mg/kg]	inhibition of growth at 125 µg/mL [11] [%]	inhibition of growth at 250 µg/mL [11] [%]	inhibition of growth at 500 µg/mL [11] [%]
					CC1(C)CC(O)(Cn2ccnc2)c2ccccc21 (centres unmarked) [Beispiel 36, 1-(1H-Imidazol-1-ylmethyl)-3,3-dimethyl-indan-1-ol]	0-3%	0-3%	0	0									
					OC1(Cn2ccnc2)CCc2ccccc21 (centres unmarked) [Verbindung 1 (Tab. 3), 1-Hydroxy-1-(1H-imidazol-1-ylmethyl)-indan]								70	18.2	300			
					OC1(Cn2ccnc2)CCc2cc(Oc3ccccc3)ccc21 (centres unmarked) [Verbindung 11 (Tab. 3)]								9.3			100	100	100
					c1ccc(-c2ccc(C3(Cn4ccnc4)CCc4ccccc43)cc2)cc1 (centres unmarked) [Verbindung 13 (Tab. 1)]								16	17.3	> 300	100	100	100
1.95 (≈ 6.04 µM)	0.97 (≈ 3 µM)	0.97 (≈ 3 µM)	0.97 (≈ 3 µM)	0.97 (≈ 3 µM)	Clc1ccc(C2(Cn3ccnc3)CCCc3ccccc32)cc1 (centres unmarked) [Verbindung 20 (Tab. 1)]	3%	0-3%	0	0	4.3	(138.5) %	9.7						
					Fc1ccc(C2(Cn3ccnc3)CCCc3ccccc32)c(F)c1 (centres unmarked) [Verbindung 32 (Tab. 1)]								17.2	60		100	100	100
					Fc1cc(Cl)ccc1C1(Cn2ccnc2)CCCc2ccccc21 (centres unmarked) [Verbindung 33 (Tab. 1)]								55	24.6		100	100	100
					Cc1ccc(C2(Cn3ccnc3)CCc3ccccc32)cc1C (centres unmarked) [Verbindung 53 (Tab. 1)]								30	35.1	> 300	100	100	100
0.48 (≈ 1.32 µM)	0.007 (≈ 0.0192 µM)	0.24 (≈ 0.658 µM)	0.06 (≈ 0.165 µM)	1.95 (≈ 5.35 µM)	c1ccc(-c2ccc(C3(Cn4ccnc4)CCCc4ccccc43)cc2)cc1 (centres unmarked) [Verbindung 60 (Tab. 1)]					4.5	(157.1) %	11				100	100	100
1.95 (≈ 5.32 µM)	0.06 (≈ 0.164 µM)	0.97 (≈ 2.65 µM)	0.97 (≈ 2.65 µM)	1.95 (≈ 5.32 µM)	c1ccc(Oc2ccc(C3(Cn4ccnc4)CCc4ccccc43)cc2)cc1 (centres unmarked) [Verbindung 67 (Tab. 1)]					3.2	(107.1) %	7.5						
0.97 (≈ 2.55 µM)	0.06 (≈ 0.158 µM)	0.48 (≈ 1.26 µM)	0.12 (≈ 0.315 µM)	0.97 (≈ 2.55 µM)	c1ccc(Oc2ccc(C3(Cn4ccnc4)CCCc4ccccc43)cc2)cc1 (centres unmarked) [Verbindung 70 (Tab. 1)]					3	(182.8) %	12.8						

Compound	MIC [2] [mg/L]	MIC [4] [mg/L]	MIC [5] [mg/L]	MIC [6] [mg/L]	MIC [7] [mg/L]	mit Weizenmehltau befallene Blattfläche in % [1, 12]	mit Weizenmehltau befallene Blattfläche in % [1, 13]	mit Weizenmehltau befallene Blattfläche in % [1, 14] [%]	mit Weizenmehltau befallene Blattfläche in % [1, 15] [%]	Mykosen (Durchmesser in mm) Präparat + Vehikel x2 [3] [mm]	Mykosen Differenz (%) [3]	Mykosen (Durchmesser in mm) Differenz x1 - x2 [3] [mm]	ED50 [8] [mg/kg]	ED50 [9] [mg/kg]	LD50 [10] [mg/kg]	inhibition of growth at 125 µg/mL [11] [%]	inhibition of growth at 250 µg/mL [11] [%]	inhibition of growth at 500 µg/mL [11] [%]
Clc1ccccc1C(c1ccccc1)(c1ccccc1)n1ccnc1 [Clotrimazol, reference compound]	3.9 (≈ 11.3 µM)	0.97 (≈ 2.81 µM)	0.97 (≈ 2.81 µM)	0.97 (≈ 2.81 µM)	1.95 (≈ 5.65 µM)					7.6	(100) %	7						
